The values below come from patent US20110065628A1, “Medication Combinations for the Treatment of Alcoholism and Drug Addiction” (UNIVERSITY OF VIRGINIA PATENT FOUNDATION, priority 2007, published 2011).

For series [1], the system named is individuals in alcohol trials. Conditions: cited from earlier work.
Series [2] concerns alcohol consumption (8% w/v) in rhesus monkeys. Description: Naltrexone effect on alcohol drinking, fixed ratio schedule, 3 hour sessions. In kind it is in vivo. Conditions: increasing doses of naltrexone 0.1, 0.3, 1.0, 3.0 g/kg; three non food deprived rhesus monkeys. As for the experimental part:
FIG. 3 graphically illustrates the effects of Naltrexone on alcohol consumption in non-human primates (rhesus monkeys). Naltrexone was administered at 0.1 (∘), 0.3 ([…]), 1.0 (□) or 3.0 (▪) […]. The ordinate represents cumulative deliveries as percent change from baseline. The abscissa represents time in 10 minute blocks.
During these 3 hour sessions, both water and alcohol were concurrently available.

Series [3] relates to patients with alcohol and nicotine dependence. Description: Open-label 8 week naltrexone study with coping skills therapy. The series is classed as in vivo, human. The conditions noted are these: naltrexone 50 mg/day, 8 weeks. The text has this: In an open-label study, we evaluated the efficacy of naltrexone, an opioid antagonist, in the treatment of alcohol dependence. Since up to 92% of alcoholics are also co-dependent on nicotine, our cohort included dually dependent individuals. […] From a local newspaper advertisement, we enrolled 10 subjects (6 males and 4 females; aged 40±2.56 years) into the study. All patients met DSM III-R criteria for both alcohol and nicotine dependence. Patients were instructed that the goal of treatment was abstinence by the end of the study. Patients received naltrexone (50 mg/day) in unmarked capsules with a riboflavin tracer for an 8 week period. Weekly attendance included combined coping skills therapy for alcohol and nicotine dependence, nursing visits, and completion of rating scales. […] Drop-out rate at 30% was similar to that observed in medication trials for alcoholism. This study supports the clinical evidence that naltrexone is a useful adjunct to Cognitive Behavioral Therapy for the treatment of alcoholism. Naltrexone's effects on cigarette smoking appears small but may warrant further exploration.

The subject of series [4] is alcohol-preferring (P) rats. Description: Combined topiramate and naltrexone on alcohol consumption. The series is classed as in vivo. The protocol:
FIG. 8 graphically illustrates the combined effect of topiramate and naltrexone on alcohol consumption in alcohol-preferring (P) rats. Rats received either vehicle, topiramate at 5 mg/kg, topiramate at 10 mg/kg, naltrexone at 1/mg/kg and topiramate at 5 mg/kg, naltrexone at 1/mg/kg and topiramate at 10 mg/kg, or naltrexone at 1 mg/kg. Each data point represents the mean (±SE) of 8 rats as a change from baseline.
No significant differences were observed following vehicle injection. Data are plotted as change from baseline consumption, and each data point represents a mean (±SE) of 8 rats.

For another series, the system named is alcoholics (EOA and LOA). Description: 11-week double-blind ondansetron trial with weekly Cognitive Behavioral Therapy. The conditions noted are these: for Drinks/Day / Drinks/Drinking Day: at endpoint; for Drinks/Day: placebo 3.30; for Drinks/Drinking Day: placebo 6.90. In kind it is in vivo, human. From the text:
It was hypothesized herein that the drinking outcomes of EOA, compared with LOA, would be more improved by the selective serotonin antagonist, ondansetron. EOA differ from LOA by having greater serotonergic abnormality, an earlier age of onset, and antisocial behaviors. Thus, EOA may be especially responsive to treatment with a selective serotonergic agent.
The design was as follows: 321 alcoholics (EOA=161; LOA=160; mean age 40.6 years; 70.5% male, and 78.6% white) received one lead in week of single-blind placebo followed by 11 weeks of double-blind outpatient treatment using a 2×4 factorial design which examined age of onset (EOA vs. LOA) and medication dose (placebo, or ondansetron 1, 4, or 16 μg/kg b.i.d) combined with weekly standardized group Cognitive Behavioral Therapy. Efficacy measures were: 1) Self reported drinking (Drinks/Day, Drinks/Drinking Day, Percent Days Abstinent, and Total Days Abstinent/study week), and 2) plasma Carbohydrate Deficient Transferrin level (CDT).

For series [5], the system named is alcohol-preferring (P) rats. Description: 24-hour-access two-bottle choice alcohol consumption, topiramate, ondansetron, naltrexone. The series is classed as in vivo. The protocol:
FIG. 10, comprising 5 panels—FIGS. 10A to 10E, graphically illustrates the combined effect of topiramate (10 mg/kg, IP), ondansetron (0.001 mg/kg, IP), and naltrexone (1 mg/kg, IP) on alcohol consumption in alcohol-preferring (P) rats. 10A—Topiramate alone; 10B—Ondansetron alone; 10C—Vehicle; 10D—Topiramate+Ondansetron; 10E—Topiramate+Ondansetron+Naltrexone. Data are plotted across seven consecutive sessions, which include a 3-day baseline period, the test session in which the ondansetron, topiramate, and naltrexone injection was administered, and the three sessions that followed the test session. Each data point represents a mean (±SE) of at least six rats. The ordinate represents ethanol intake in g/kg and the abscissa represents session number.
The effects of ondansetron, topiramate, and naltrexone, medications shown to be efficacious in treating alcohol-dependent humans, on measures of alcohol dependence were determined in animal models in order to determine whether these medications may produce additive effects when combined. The experiments examined their ability to modulate total consumption under a 24-hour-access two-bottle choice procedure wherein rats had unlimited access to alcohol solutions (10%) and water. […]

For a further series, the system named is EOA and LOA alcoholics. The conditions noted are these: EOA compared with LOA; 1, 4, 16 μg/kg twice daily, particularly 4 μg/kg; cited from earlier work.
For series [6], the system named is patients with alcoholism (DSM III-R). Description: 12-week outpatient placebo-controlled ritanserin trial with Cognitive Behavioral Therapy. The series is classed as in vivo, human. Conditions: ritanserin 2.5 mg or 5 mg, 12 weeks. The protocol:
FIG. 5 graphically illustrates the effects of treatment with Ritanserin in conjunction with Cognitive Behavioral Therapy. The ordinate represents the mean number of drinks since the last visit and the abscissa indicates the time period of assessment in the study (in weeks). Subjects were treated with 2.5 mg Ritanserin ([…]), 5.0 mg Ritanserin ? or received placebo (▴).
In this study, we examined the efficacy of ritanserin on alcohol consumption in a 12-week, outpatient, placebo-controlled clinical trial. This study overlapped in time and recruitment effort with the ondansetron study described above. Therefore, our research group has the expertise to conduct multiple treatment studies simultaneously. Fifty-four patients from our center who met DSM III-R criteria for alcoholism participated and were randomized to receive placebo, 2.5 mg, or 5 mg of ritanserin. All patients received standardized manual driven Cognitive Behavioral Therapy for alcoholism. Cognitive Behavioral Therapy was conducted by counselors with extensive experience with behavioral treatments, and over 500 therapy hours were logged. […] There was no within time effect nor group interaction. Similarly, there was no difference in craving between the treatment groups.

Series [7] relates to alcohol-dependent men and women. Conditions: topiramate up to 300 mg per day, 12 weeks; cited from earlier work.
Series [8] relates to individuals who take topiramate. Conditions: cited from earlier work.
Where [9] appears, read: EOA, ondansetron 1 μg/kg b.i.d, p<0.05.
The mark [10] stands for this setting: EOA, ondansetron 4 μg/kg b.i.d, p<0.05.
[11] abbreviates: N=321, 88 received the 4 μg/kg dose.

SMILES strings stand for the structures. Structures can show the parent of a compound that is named as a salt.

As to `O=C1CC[C@@]2(O)[C@H]3Cc4ccc(O)c5c4[C@@]2(CCN3CC2CC2)[C@H]1O5` [naltrexone, 17-(Cyclopropylmethyl)-4,5 a-epoxy-3,14-dihydroxymorphinan-6-one hydrochloride], the “rate of subject withdrawal due to naltrexone induced nausea” value in series [1] (Croop and Colleagues, 570 received naltrexone) was 15%. Besides, the “individuals unable to tolerate naltrexone” value in series [1] (naltrexone dose of 50 mg/day) is reported as “about 15%”. Moreover, the alcohol consumption result is listed as “dose-dependent decreases” in series [2] and 2.16±1.88 drinks/day in series [3] (before 3.29±2.16 drinks/day, p<0.05). In addition, the nicotine withdrawal symptoms entry in series [3] is given as “No patient reported clinically significant nicotine withdrawal symptoms”. The smoking in series [3] (before 21.10±5.57 cigarettes/day) was 15.93±3.09 cigarette/day. The “alcohol consumption, change from baseline” value in series [4] (naltrexone alone, 1 mg/kg intraperitoneally) is given as “did not affect alcohol consumption on its own”.

On to `Cc1nccn1CC1CCc2c(c3ccccc3n2C)C1=O` (stereo not shown) [ondansetron, 9-methyl-3-[(2-methyl-1H-imidazol-1-yl)methyl]-1,2,3,9-tetrahydrocarbazol-4-one], for which, in the series on alcoholics (EOA and LOA) (setting [9]), the Drinks/Day stood at 1.89 and the “Drinks/Drinking Day” value was 4.75. Further, the “mean log CDT ratio between endpoint and enrollment” value in the series on alcoholics (EOA and LOA) (EOA, ondansetron 1 μg/kg b.i.d, placebo +0.11, p<0.05) is −0.17. In addition, in the series on alcoholics (EOA and LOA) (setting [10]), the Drinks/Day is given as 1.56 and the “Drinks/Drinking Day” value is 4.28. For the same compound, the “Drinking outcomes in LOA” value in the series with alcoholics (EOA and LOA) (LOA) is reported as “not improved substantially”. Besides, in the series on alcoholics (EOA and LOA) (setting [11]), the nausea entry is reported as “nausea was not reported” and the side-effects vs. placebo result is reported as “no side-effect was reported more often than placebo”. Besides, the “Total Days Abstinent/study week” value with alcoholics (EOA and LOA) (ondansetron 4 μg/kg b.i.d, placebo 5.92, p<0.05) is recorded as 6.74. Besides, in the series on alcoholics (EOA and LOA) (ondansetron 4 μg/kg b.i.d, placebo 50.20, p<0.05), the “Percent Days Abstinent” value amounted to 70.10. In series [5] (ondansetron alone 0.001 mg/kg intraperitoneally (FIG. 10B)), the alcohol consumption entry was “did not affect alcohol consumption on its own”. Further, the drinking result in the series with EOA and LOA alcoholics was “significant reductions in drinking”.

In the case of `Cc1nc2sccn2c(=O)c1CCN1CCC(=C(c2ccc(F)cc2)c2ccc(F)cc2)CC1` [ritanserin], in series [6], the alcohol consumption result is on record as “no clinically significant effect” and the craving result is on record as “no clinically significant effect”.

Regarding `CC1(C)O[C@@H]2[C@@H](CO[C@@]3(COS(N)(=O)=O)OC(C)(C)O[C@@H]23)O1` [topiramate, 2,3:4,5-Bis-O-(1-methylethylidene)-beta-D-fructopyranose sulfamate], the “decrease in alcohol consumption from baseline” value in [5] (topiramate alone 10 mg/kg intraperitoneally (FIG. 10A)) is 12%±8%. Further, in series [7], the craving vs. placebo result is given as “significantly less craving”; the “days of abstinence vs. placebo” value was “significantly more days of abstinence”; the “drinks per day, drinking days, drinks per drinking day vs. placebo” value was “significantly fewer drinks per day, drinking days, and drinks per drinking day”. Also, in series [4] (topiramate alone, 10 mg/kg intraperitoneally, effect not yet significant), the “alcohol consumption, change from baseline” value is “only modestly decreased alcohol consumption”. Also, the “cognitive impairment, reported rate” value in series [8] (general population) is on record as 2.4%. In series [8] (substance abuse field), the “cognitive impairment, occurrence rate” value was “about 18.7%”.
